Where two headings read alike, the source gives them in different places.
What was measured:
[1] = Fraction unbound in plasma (fu), main binding protein; conditions: PBPK input; unpublished (in-house) data
in vitro = conditions: human, Caco-2
UGT1A1 = target: T1, UGT1A1 (Homo sapiens, UniProt P22309); assay: Metabolism by UGT1A1; type: in vitro ADME
T1 sequence (P22309 26-533): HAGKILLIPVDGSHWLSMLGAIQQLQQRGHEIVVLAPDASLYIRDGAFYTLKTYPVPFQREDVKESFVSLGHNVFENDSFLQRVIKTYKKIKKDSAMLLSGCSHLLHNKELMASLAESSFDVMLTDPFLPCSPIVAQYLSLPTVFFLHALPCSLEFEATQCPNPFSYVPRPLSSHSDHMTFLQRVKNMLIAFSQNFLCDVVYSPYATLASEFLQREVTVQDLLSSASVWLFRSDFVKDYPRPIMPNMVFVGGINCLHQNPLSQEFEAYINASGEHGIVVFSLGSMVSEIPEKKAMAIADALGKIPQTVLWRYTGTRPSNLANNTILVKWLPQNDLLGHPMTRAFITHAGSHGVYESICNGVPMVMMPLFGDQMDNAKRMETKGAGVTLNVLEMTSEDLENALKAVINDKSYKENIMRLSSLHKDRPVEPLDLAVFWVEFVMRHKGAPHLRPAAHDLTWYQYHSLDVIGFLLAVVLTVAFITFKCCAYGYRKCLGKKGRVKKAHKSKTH
Description: (§1) In nearly all cases the fraction of systemic elimination metabolised by a given enzyme (fm) determined in vitro was unavailable in the literature.

[2] = ref McCarthy et al., 2020 47, cited from earlier work; for AUC Obs: 0-inf
[3] = In vivo clearance (CL IV, CL PO, CL renal, fe); conditions: rat, after IV dose
[4] = clinically observed oral (in vivo) clearance; pyronaridine: blood; ref amodiaquine Winstanley et al., 1987 9; DEAQ Akande et al., 2015 8, Scarsi et al., 2014 35, Tarning et al., 2012 36, Orrell et al., 2008 37; DHA Na-Bangchang et al., 2004 42; lumefantrine Lefevre et al., 2002 52, Hoglund et al., 2015 53; mefloquine Charles et al., 2007 56; proguanil Jeppesen et al., 1997 34; pyronaridine Jittama; cited from earlier work
[5] = In vitro flags for victim and perpetrator properties conferring DDI liability; type: in vitro ADME, human; conditions: in vitro flag, mainly based on in vitro determinations
[6] = Blood to plasma ratio (B:P); conditions: PBPK input; unpublished (in-house) data
CYP3A4 = CYP3A4 (Homo sapiens, UniProt P08684)
Description: as §1

Sequence of CYP3A4 (P08684 whole entry): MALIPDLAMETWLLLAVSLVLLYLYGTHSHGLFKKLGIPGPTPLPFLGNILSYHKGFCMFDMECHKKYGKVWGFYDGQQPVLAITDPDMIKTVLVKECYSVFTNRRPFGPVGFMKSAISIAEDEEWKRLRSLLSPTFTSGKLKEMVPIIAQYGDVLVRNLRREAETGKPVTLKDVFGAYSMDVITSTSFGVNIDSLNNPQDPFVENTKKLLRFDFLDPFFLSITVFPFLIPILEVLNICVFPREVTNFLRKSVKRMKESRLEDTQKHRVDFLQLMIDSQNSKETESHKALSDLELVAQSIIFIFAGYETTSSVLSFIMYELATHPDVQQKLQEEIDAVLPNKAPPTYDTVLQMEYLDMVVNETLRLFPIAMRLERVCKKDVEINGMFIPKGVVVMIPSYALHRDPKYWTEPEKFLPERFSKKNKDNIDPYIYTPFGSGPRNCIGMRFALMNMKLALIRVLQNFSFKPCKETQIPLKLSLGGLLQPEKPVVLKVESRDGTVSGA

fu [1]: 0.145
Papp A→B (in vitro): 44 ×10⁻⁶ cm/s
CLint UGT1A1 (UGT1A1; Derived from CL PO using retrograde calculations): 1.13 µL/min/pmol
fm UGT1A1 (UGT1A1; allocation of clearance, based on in vitro data): 90%
fm by UGT1A1 (UGT1A1; fraction metabolized): 0.9
dose recovered in urine [3]: 0.2 % of dose
B:P [6]: 0.9
fmCYP3A4 (CYP3A4): 10%
CLint CYP3A4 (CYP3A4; microsomes): 0.13 µL/min/pmol
Compound: CS(=O)(=O)c1ccc(-c2cnc(N)c(-c3ccc(C(F)(F)F)nc3)c2)cc1 [MMV048]
AUC Obs ([2]; 40 mg SD): 30320 ng·h/mL
Cmax Obs ([2]; 40 mg SD): 272.7 ng/mL
AUC Obs ([2]; 80 mg SD): 82680 ng·h/mL
Cmax Obs ([2]; 80 mg SD): 561.0 ng/mL
AUC Obs ([2]; 120 mg SD): 137800 ng·h/mL
Cmax Obs ([2]; 120 mg SD): 1094.0 ng/mL
CL PO [4]: 0.82 L/h
Risk as a perpetrator [5]: No risk has been identified as a perpetrator

Reference: article PMC10508484, “Development and application of a PBPK modeling strategy to support antimalarial drug development” (CPT: Pharmacometrics & Systems Pharmacology, 2023)
